Data: patent US9403843B2, “Cysteine protease inhibitors and uses thereof” (The Trustees of Columbia University in the City of New York, priority 2012, dated 2016)
Read-outs that look alike come from different tables or passages of the source.

Key:
[1] = test system: Aβ-induced LTP impairment; experiment: LTP rescue test; conditions: assessed at 650 nM
Protocol: Residual levels of potentiation were averaged during the last 5 min of LTP.

[2] = target: T1, full-length human Cal1 (Homo sapiens (Human), UniProt P07384); experiment: Calpain inhibition FRET assay; type: biochemical; conditions: for IC50: Table 2, approximate IC50, read-out: Cal I IC50
Protocol: Calpain activity was measured using full-length human Cal1 in the presence of a FRET substrate. IC50 values were approximated by co-incubation of varying concentrations of the appropriate inhibitor (10, 100, 500, 1000 nM) in the presence of the FRET substrate (DABCYL)TPLK-SPPSPR-(EDANS) (SEQ ID NO: 5) and activation buffer. […] A peptide inhibitor, Z-LLY-FMK (SEQ ID NO: 6), was used as a positive control.
The Calbiochem InnoZyme activity kit was used for measuring the inhibition effect inhibitors on human erythrocyte calpain 1 activity. […] 20 μM of the FRET substrate, 10 nM of native Cal1, and 20 μM TCEP (reducing agent) were added to the reaction mixture containing assay buffer (Tris [10 mM], NaCl [100 mM], pH 7.4). Cal1 was activated by the addition of 10 μM calcium. Cleavage of the scissile bond amide bond, K-S, releases the fluorophore (EDANS) from the internal quenching molecule (DABCYL), resulting in an increase in fluorescence measured at 320 nm excitation and 480 nm emission wave lengths for 30 min. Each inhibitor was added to the reaction mixture at varying concentrations (10 nM, 100 nM, 1 μM, and 10 μM) to detect inhibition of Cal1 and reduction in fluorescence was measured by 96 well-plate reader. Approximate IC50 values of each compound were generated using linear regression within Graphpad Prism Software.

[3] = test system: APP/PS1 mice; experiment: Behavioral rescue assays (contextual fear memory, 2-day RAWM reference memory); type: in vivo
Excerpt: APP/PS1-vehicle: n=15; APP/PS1-67: n=6; APP/PS1-30a: n=10; WT-vehicle: n=15; WT-67=5; WT-30a: n=8, APP/PS1-33: n=11; WT-33: n=8, APP/PS1-50: n=10; WT-50: n=8. P<0.05 in all transgenic groups treated with compound compared to their respective vehicle-treated transgenics.
APP/PS1-vehicle: n=17; APP/PS1-67: n=9; APP/PS1-30a: n=10; WT-vehicle: n=18; WT-67=9; WT-30a: n=9, APP/PS1-33: n=10; WT-33: n=9, APP/PS1-50: n=11; WT-50: n=9.
The ability of compounds to rescue the defects in associative and reference memory in 3 month old APP/PS1 animals was assessed. Capability of ameliorating the defects in contextual fear memory was tested via i.p. administration (FIG. 12). In the 2-day RAWM test, daily injections of the 67, 30a, 33 and 50 from the 2nd month of age were beneficial against the loss of contextual fear memory and reference memory.
Impact of chronic treatment on against memory loss in older APP/PS1 mice (7 months of age) with a more severe plaque load was also investigated. Compounds 67, 33 and 50 were beneficial against memory impairment following chronic administration (FIG. 13).
The ability of a prodrug to rescue the defects in associative and reference memory in 3 month old APP/PS1 animals was assessed. […] Thus, the esterification seems to improve PK but it spoils PD parameters. Compound 89 ameliorates both LTP and memory in 3 month old APP/PS1 mice (FIG. 15). Daily treatment with 89 from the age of 2 months until 3 months ameliorated the defect in LTP (A) contextual fear memory (B) and reference memory (C) in APP/PS1 mice. n=10 for all groups. P<0.05 in transgenics treated with compound compared to their respective vehicle-treated transgenics.

[4] = target: T1, full-length human Cal1; experiment: Calpain inhibition FRET assay; type: biochemical; conditions: Table 3, 20 min incubation, FRET substrate
[5] = test system: Cal1cat vs CathB; experiment: Competition assay for Cal1 vs CathB using the biotinylated epoxide probe; type: binding, rat; conditions: individually and in combination
Protocol: Anti-biotin western blotting of Cal1cat (Lane 6) or CathB (Lane 7) after incubation with 27 show the expected immunoreactivity of the covalently modified proteins. […] Densitometric analysis, using means from triplicate immunoblots, was used to estimate the modification of each protein by 27 in the presence of inhibitors relative to control (Lane 1: ratio=1.0).
Cal1cat was used in place of the full length enzyme to avoid autocatalysis.
Cal1cat and CathB were pre-treated with inhibitors for 10 min, followed by a 20 min incubation with the biotinylated epoxide, 27, as illustrated in FIG. 4. […] A more quantitative estimate of selectivity was achieved by comparison of band intensities.
The appropriate inhibitor (5 μM) was pre-incubated in a mixture containing Cal1cat (2 μM), CathB (2 μM), TCEP (1 mM), and Ca^2+ (30 μM) for 10 min at 37° C. […] (5 μM) was then added and the mixture incubated an additional 20 min. The reaction was quenched with EDTA (10 μM) and samples were ran using 4-16% SDS PAGE gel, subsequently transferred to PVDF membrane and visualized by Pierce ECL (Enhanced chemiluminescent) western blotting substrate, intensity of each blot was calculated using densitometry software. Relative inhibition of each enzyme was calculated with respect to enzyme activity in the absence of inhibitor. Inhibitor preference to Cal1cat with respect to CathB, was calculated by dividing relative Cal1cat inhibition with relative CathB inhibition of that particular inhibitor.

[6] = target: Full length porcine calpain (Sus scrofa (Pig), UniProt P35750); experiment: Calpain inhibition kinetics studies (Suc-LLVY-AMC substrate); type: biochemical
Excerpt: (§1) Papain is representative of a family of typically lysosomal or secreted cysteine proteases, including the human cathepsins (B, C, F, H, K, L1-2, O, S, W, Z). […] Several methods have been reported in the literature for detailed kinetic analysis of the irreversible inhibition of cysteine proteases, including Cal1. […] (SEQ ID NO: 8). Using this substrate, kinetic parameters were derived using the method of Davies and co-workers, whereby “progress curves” were initially obtained measuring product formation as a function of time and fitted to y=P∞*(1−e^(−k*x)) (FIG. 7) (Cuerrier, D. et al., J Biol Chem 2007, 282, 9600-11; herein incorporated by reference in its entirety). […] Kinetic parameters (ki, KI, ki/KI) were obtained from double reciprocal plots (FIG. 7).
(§2) Full length porcine calpain (156 nM), or papain (236 pM) was added to a solution of 100 mM NaCl, 50 mM HEPES, pH 7.6, 1 mM TCEP, 30 μM Suc-LLVY-AMC (SEQ ID NO: 8) substrate, and inhibitor (0.5 to 50 μM). Calpain reactions also contained CaCl2 (1 mM and 100 mM for porcine and rat respectively). Both substrate and inhibitors were dissolved in acetonitrile/DMSO (1:1) with the exception of E-64, dissolved in water. Organic solvent remained <2% in all reactions, and most often <1%. Reactions were carried out in microtiter 96-well plates, with 150 μL per well, 30° C., and product formation was monitored over time by fluorescence (Ex/Em 346/444 nm, with 420 nm cutoff filter). Kinetic values of kobs were determined via non-linear regression using one-phase association analysis and linear plots of 1/kobs vs. 1/[I] provided kinetic constants ki and KI.

[7] = target: papain (Carica papaya (Papaya), UniProt P00784); experiment: biochemical; type: biochemical
Excerpt: as §1, §2

[8] = APP/PS1 mice, daily treatment from 2 until 7 months
[9] = ki/Ki calculated relative to E-64
[10] = mean ± S.D. of triplicate experiments
[11] = >1: inhibition not quantifiable at 1 μM

Sequence of Full length porcine calpain (P35750 whole entry): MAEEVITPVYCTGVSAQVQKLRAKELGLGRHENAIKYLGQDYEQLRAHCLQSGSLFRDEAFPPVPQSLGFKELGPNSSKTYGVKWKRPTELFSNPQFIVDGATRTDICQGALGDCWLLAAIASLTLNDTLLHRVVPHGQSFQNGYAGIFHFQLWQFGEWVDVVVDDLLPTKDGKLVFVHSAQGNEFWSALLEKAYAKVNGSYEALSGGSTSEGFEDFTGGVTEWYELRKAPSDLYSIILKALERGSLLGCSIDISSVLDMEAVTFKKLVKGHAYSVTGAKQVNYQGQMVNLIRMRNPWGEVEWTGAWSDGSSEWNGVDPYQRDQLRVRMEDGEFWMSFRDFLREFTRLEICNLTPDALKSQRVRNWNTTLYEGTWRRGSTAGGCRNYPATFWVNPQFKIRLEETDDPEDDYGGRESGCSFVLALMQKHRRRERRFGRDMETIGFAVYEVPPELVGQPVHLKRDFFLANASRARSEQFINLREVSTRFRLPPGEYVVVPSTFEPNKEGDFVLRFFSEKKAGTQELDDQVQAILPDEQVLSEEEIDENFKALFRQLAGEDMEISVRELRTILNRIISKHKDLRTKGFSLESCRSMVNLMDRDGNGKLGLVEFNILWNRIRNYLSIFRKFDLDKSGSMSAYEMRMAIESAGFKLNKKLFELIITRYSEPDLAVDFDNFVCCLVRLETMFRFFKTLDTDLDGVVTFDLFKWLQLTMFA
Sequence of Full length porcine calpain (P04574 whole entry partner): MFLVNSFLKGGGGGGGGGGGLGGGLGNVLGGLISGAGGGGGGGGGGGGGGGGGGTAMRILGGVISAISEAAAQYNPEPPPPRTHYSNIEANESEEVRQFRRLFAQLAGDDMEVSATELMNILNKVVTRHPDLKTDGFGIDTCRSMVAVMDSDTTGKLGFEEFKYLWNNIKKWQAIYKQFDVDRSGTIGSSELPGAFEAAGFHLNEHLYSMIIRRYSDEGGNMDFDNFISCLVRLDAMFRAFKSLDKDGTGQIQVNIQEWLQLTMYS
Sequence of papain (P00784 134-345): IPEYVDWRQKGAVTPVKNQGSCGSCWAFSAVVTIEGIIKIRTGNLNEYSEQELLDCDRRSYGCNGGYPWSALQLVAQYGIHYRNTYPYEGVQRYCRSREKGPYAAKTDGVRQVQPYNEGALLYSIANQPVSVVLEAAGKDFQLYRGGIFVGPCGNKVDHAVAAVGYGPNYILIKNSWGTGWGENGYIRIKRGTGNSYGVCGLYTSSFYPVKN
T1 sequence (P07384 whole entry): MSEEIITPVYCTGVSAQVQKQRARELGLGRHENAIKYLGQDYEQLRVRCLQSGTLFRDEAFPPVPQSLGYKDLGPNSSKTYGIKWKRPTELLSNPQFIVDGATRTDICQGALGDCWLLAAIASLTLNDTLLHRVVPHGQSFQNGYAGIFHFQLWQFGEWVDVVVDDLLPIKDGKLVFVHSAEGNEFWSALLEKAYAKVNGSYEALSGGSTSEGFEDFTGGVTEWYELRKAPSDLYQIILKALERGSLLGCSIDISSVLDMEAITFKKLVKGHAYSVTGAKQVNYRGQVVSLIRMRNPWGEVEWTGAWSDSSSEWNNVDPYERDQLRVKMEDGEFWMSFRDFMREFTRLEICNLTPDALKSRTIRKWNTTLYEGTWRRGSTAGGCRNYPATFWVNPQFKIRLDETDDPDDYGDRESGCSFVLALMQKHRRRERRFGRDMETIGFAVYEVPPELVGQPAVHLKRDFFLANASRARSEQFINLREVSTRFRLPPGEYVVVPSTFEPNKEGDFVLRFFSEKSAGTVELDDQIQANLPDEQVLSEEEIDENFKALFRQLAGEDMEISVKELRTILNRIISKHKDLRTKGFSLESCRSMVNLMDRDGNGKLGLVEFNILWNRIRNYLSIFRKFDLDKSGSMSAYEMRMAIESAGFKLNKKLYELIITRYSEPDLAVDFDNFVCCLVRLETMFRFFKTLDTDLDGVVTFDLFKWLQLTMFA
T1 sequence (P04632 whole entry partner): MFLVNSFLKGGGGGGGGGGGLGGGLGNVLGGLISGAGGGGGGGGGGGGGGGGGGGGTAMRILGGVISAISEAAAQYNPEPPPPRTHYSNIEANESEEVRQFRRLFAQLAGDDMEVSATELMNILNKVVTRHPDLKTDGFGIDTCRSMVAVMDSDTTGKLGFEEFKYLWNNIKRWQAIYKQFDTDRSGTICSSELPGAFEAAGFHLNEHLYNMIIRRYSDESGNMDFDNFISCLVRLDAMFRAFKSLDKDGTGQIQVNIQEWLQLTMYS

IC50 [2] [µM] | IC50 [4] [µM] | Cal1 inhibition (in words) [2] | IC50 [4, 11] [µM] | SMILES | potency for LTP rescue compared with E64 [1] | further results
0.15 | 0.1 | shown to be a Cal1 inhibitor | – | CC(C)C[C@H](NC(=O)[C@H]1O[C@@H]1C(=O)O)C(=O)NCCCCNC(=O)CCCC[C@@H]1SC[C@@H]2NC(=O)N[C@@H]21 [Compound 27, (2S,3S)-3-((S)-4-methyl-1-oxo-1-(4-(5-((3aS,4S,6aR)-2-oxohexahydro-1H-thieno[3,4-d]imidazol-4-yl)pentanamido)butylamino)pentan-2-ylcarbamoyl)oxirane-2-carboxylic acid] | – | covalent modification of Cal1 and CathB (anti-biotin immunoblotting) [5]: covalently modify both Cal1 and CathB
– | 0.225 | – | – | Cn1cnc(C[C@H](NC(=O)[C@H]2O[C@@H]2C(=O)O)C(=O)Nc2nc(-c3ccc(F)cc3)cs2)c1 [Compound 36, (2S,3S)-3-((S)-1-(4-(4-fluorophenyl)thiazol-2-ylamino)-3-(1-methyl-1H-imidazol-4-yl)-1-oxopropan-2-ylcarbamoyl)oxirane-2-carboxylic acid] | did not surpass | –
0.04 | – | potent activity | – | O=C(NCc1cn(-c2ccc(Br)cc2)nn1)[C@H](Cc1cscn1)NC(=O)[C@H]1O[C@@H]1C(=O)O [Compound 55, (2S,3S)-3-((S)-1-((1-(4-bromophenyl)-1H-1,2,3-triazol-4-yl)methylamino)-1-oxo-3-(thiazol-4-yl)propan-2-ylcarbamoyl)oxirane-2-carboxylic acid] | did not surpass | –
> 1 | – | – | > 1 | O=C(Nc1nc2ccc(F)cc2s1)[C@H](Cc1c[nH]cn1)NC(=O)[C@@H]1O[C@H]1C(=O)O [Compound 31b, (2R,3R)-3-((S)-1-(6-fluorobenzo[d]thiazol-2-ylamino)-3-(1H-imidazol-4-yl)-1-oxopropan-2-ylcarbamoyl)oxirane-2-carboxylic acid] | – | –
1 | – | – | – | O=C(O)[C@H]1O[C@@H]1C(=O)NC1(C(=O)NCCCCNS(=O)(=O)c2ccc(F)cc2)CCCCC1 [Compound 66] | surpassed E64 | –
> 1 | – | not observed | > 1 | CC(C)C[C@H](NC(=O)[C@@H]1O[C@H]1C(=O)O)C(=O)Nc1c(F)cccc1F [Compound 23b, (2R,3R)-3-((S)-1-(2,6-difluorophenylamino)-4-methyl-1-oxopentan-2-ylcarbamoyl)oxirane-2-carboxylic acid] | – | –
> 1 | – | relatively high IC50 values | > 1 | Cc1cc(C)c(-n2cc(CNC(=O)[C@H](Cc3cscn3)NC(=O)[C@H]3O[C@@H]3C(=O)O)nn2)c(C)c1 [Compound 58, (2S,3S)-3-((S)-1-((1-mesityl-1H-1,2,3-triazol-4-yl)methylamino)-1-oxo-3-(thiazol-4-yl)propan-2-ylcarbamoyl)oxirane-2-carboxylic acid] | – | –

SMILES | IC50 [2] [µM] | IC50 [4] [µM] | Cal1 inhibition (in words) [2] | IC50 [4, 11] [µM] | potency for LTP rescue compared with E64 [1] | further results
CC(C)C[C@H](NC(=O)[C@H]1O[C@@H]1C(=O)O)C(=O)NCCCCNC(=O)CCCCC1CCSS1 (stereo partly shown) [Compound 67] | 0.15 | – | – | – | surpassed E64 | reference memory ([3]; 3 month old APP/PS1 mice, 2-day RAWM, daily from 2 months): beneficial; contextual fear memory ([3]; 3 month old APP/PS1 mice, daily i.p. from 2 months): beneficial; memory impairment ([3]; 7 month old APP/PS1 mice, chronic administration): beneficial; contextual fear memory [3, 8]: ameliorated; reference memory [3, 8]: not significant
C#Cc1ccc(-c2csc(NC(=O)[C@H](Cc3cscn3)NC(=O)[C@H]3O[C@@H]3C(=O)O)n2)cc1 [Compound 34, (2S,3S)-3-((S)-1-(4-(4-ethynylphenyl)thiazol-2-ylamino)-1-oxo-3-(thiazol-4-yl)propan-2-ylcarbamoyl)oxirane-2-carboxylic acid] | – | 0.1 | – | – | – | Relative Selectivity ([6]; Cal1 over papain, ki/Ki relative to E-64 set at 1.0): 3.3; Ki ([6]; apparent equilibrium constant, full length Cal1, read-out: K1 Calpain1): 3.5 µM; ki Calpain1 ([6]; inhibition rate, full length Cal1): 0.14 s⁻¹; relative selectivity for inhibition of Cal1 over papain (in words) ([6]; ki/Ki as measure, compared with E-64): Cal1 selectivity; rel Calpain1 [6, 9]: 1.3; 10^−4 × ki/Ki Calpain1 [6, 10]: 3.89 ± 0.41; Ki ([7]; apparent equilibrium constant, read-out: K1 Papain): 9.7 µM; ki Papain ([7]; inhibition rate): 21.6 s⁻¹; rel Papain [7, 9]: 0.40; 10^−5 × ki/Ki Papain [7, 10]: 22.3 ± 0.24
